Test results: patent US12152012B2, “BRAG2 inhibitors and applications thereof” (CENTRE NATIONAL DE LA RECHERCHE SCIENTIFIQUE, priority 2018, dated 2024)

How the values were obtained:
[1] = test system: TGN46 (trans-Golgi network marker) in Hela cells; experiment: Immunostaining and confocal microscopy of Hela cells; assay type: cell-based, human; settings: for Reversibility of TGN46 dispersion / Dispersion of TGN46 marker: Hela cells; for Reversibility of TGN46 dispersion: 50 μM 30 min, then 30 min in fresh medium; for Dispersion of TGN46 marker: 50 μM, 30 min; for Rescue of compound-induced TGN46 dispersion by constitutively active Arf1, Arf5, Arf6 Q/L-mCherry: transfected Hela cells
Experimental: (§1) FIG. 1. Bragsin2 affects Arf pathways in cells • a. Chemical structures of Bragsin1 and Bragsin2 and derivatives used in this study. Chemical synthesis and structural characterization of the compounds are described in example 6. • b. Bragsin2 disperses the TGN46 and GM130 markers. HeLa cells were treated with either DMSO (0.25%) or Bragsin2 (50 μM) for 30 min, immunostained for TGN46, GM130 or EEA1 (green channel) and analysed by confocal microscopy. Dispersion of GM130 and TGN46 by Bragsin2 is reversible. Hela cells were treated as in FIG. 1a and were incubated for an additional 30 min in fresh medium (wash panel) prior to immunostaining and confocal microscopy analysis. Expression of Arf-mCherry constructs carrying an activating mutation rescues the effect of Bragsin2. Hela cells were transfected with constitutively active Q/L mutants of Arf-mCherry. Note the difference between non-transfected cells (white asterisk) and transfected cells. Scale bars, 10 μm.
(§2) Hela cells were grown in Dulbecco's modified Eagle's medium supplemented with Glutamax™ and 10% fetal bovine serum (Invitrogen). For immunofluorescence studies, cells were grown on Labtek glass slides (Nunc) and transfected for 18 to 24 h using Lipofectamine 2000 (Invitrogen), according to the supplier's instructions. When specified, cells were treated with the indicated concentration of small molecule or corresponding volume of vehicle (DMSO) in growth medium for 30 min at 37° C.
(§3) Immunostaining procedure was as described in (Viaud, J. et al. Structure-based discovery of an inhibitor of Arf activation by Sec7 domains through targeting of protein-protein complexes. Proc Natl Acad Sci USA 104, 10370-5 (2007)) except that secondary antibody incubation was performed for 1h using Alexa 488-conjugated goat anti-mouse (1:600) or donkey anti-sheep (1:500) IgG and Alexa 647-conjugated phalloidin (1:100). Anti-GM130 was used at dilution 1:200. Images were bidirectionally recorded using an inverted Leica TCS SP8 laser-scanning confocal microscope with a 100× (N. A. 1.40) oil objective (HCX APO, Leica). Fluorochromes were detected sequentially using excitation laser lines at 488 nm (Alexa 488), 594 nm (mCherry) and 633 nm (Alexa 647). Stacks were generated using a z-step of 0.5 μm and processed using Fiji/ImageJ (Schindelin, J. et al. Fiji: an open-source platform for biological-image analysis. Nat Methods 9, 676-82 (2012)). Images are representative of at least two independent experiments.

[2] = test system: GM130 (cis-Golgi marker) in Hela cells; experiment: as above; assay type: cell-based, human; settings: for Reversibility of GM130 dispersion: 50 μM 30 min, then 30 min in fresh medium; for Dispersion of GM130 marker: 50 μM, 30 min
Experimental: as §1, §2, §3

yeast ArfGEF Sec7p = target: T1, yeast ArfGEF Sec7p (Saccharomyces cerevisiae, UniProt P11075); experiment: Yeast chemogenomic screen; assay type: cell-based
T1 construct: endogenous in cells; host or cells: yeast

[3] = Stability of DMSO stock solution (1H-NMR); assay type: physicochemical; settings: kept in DMSO for several months

T1 sequence (P11075 whole entry): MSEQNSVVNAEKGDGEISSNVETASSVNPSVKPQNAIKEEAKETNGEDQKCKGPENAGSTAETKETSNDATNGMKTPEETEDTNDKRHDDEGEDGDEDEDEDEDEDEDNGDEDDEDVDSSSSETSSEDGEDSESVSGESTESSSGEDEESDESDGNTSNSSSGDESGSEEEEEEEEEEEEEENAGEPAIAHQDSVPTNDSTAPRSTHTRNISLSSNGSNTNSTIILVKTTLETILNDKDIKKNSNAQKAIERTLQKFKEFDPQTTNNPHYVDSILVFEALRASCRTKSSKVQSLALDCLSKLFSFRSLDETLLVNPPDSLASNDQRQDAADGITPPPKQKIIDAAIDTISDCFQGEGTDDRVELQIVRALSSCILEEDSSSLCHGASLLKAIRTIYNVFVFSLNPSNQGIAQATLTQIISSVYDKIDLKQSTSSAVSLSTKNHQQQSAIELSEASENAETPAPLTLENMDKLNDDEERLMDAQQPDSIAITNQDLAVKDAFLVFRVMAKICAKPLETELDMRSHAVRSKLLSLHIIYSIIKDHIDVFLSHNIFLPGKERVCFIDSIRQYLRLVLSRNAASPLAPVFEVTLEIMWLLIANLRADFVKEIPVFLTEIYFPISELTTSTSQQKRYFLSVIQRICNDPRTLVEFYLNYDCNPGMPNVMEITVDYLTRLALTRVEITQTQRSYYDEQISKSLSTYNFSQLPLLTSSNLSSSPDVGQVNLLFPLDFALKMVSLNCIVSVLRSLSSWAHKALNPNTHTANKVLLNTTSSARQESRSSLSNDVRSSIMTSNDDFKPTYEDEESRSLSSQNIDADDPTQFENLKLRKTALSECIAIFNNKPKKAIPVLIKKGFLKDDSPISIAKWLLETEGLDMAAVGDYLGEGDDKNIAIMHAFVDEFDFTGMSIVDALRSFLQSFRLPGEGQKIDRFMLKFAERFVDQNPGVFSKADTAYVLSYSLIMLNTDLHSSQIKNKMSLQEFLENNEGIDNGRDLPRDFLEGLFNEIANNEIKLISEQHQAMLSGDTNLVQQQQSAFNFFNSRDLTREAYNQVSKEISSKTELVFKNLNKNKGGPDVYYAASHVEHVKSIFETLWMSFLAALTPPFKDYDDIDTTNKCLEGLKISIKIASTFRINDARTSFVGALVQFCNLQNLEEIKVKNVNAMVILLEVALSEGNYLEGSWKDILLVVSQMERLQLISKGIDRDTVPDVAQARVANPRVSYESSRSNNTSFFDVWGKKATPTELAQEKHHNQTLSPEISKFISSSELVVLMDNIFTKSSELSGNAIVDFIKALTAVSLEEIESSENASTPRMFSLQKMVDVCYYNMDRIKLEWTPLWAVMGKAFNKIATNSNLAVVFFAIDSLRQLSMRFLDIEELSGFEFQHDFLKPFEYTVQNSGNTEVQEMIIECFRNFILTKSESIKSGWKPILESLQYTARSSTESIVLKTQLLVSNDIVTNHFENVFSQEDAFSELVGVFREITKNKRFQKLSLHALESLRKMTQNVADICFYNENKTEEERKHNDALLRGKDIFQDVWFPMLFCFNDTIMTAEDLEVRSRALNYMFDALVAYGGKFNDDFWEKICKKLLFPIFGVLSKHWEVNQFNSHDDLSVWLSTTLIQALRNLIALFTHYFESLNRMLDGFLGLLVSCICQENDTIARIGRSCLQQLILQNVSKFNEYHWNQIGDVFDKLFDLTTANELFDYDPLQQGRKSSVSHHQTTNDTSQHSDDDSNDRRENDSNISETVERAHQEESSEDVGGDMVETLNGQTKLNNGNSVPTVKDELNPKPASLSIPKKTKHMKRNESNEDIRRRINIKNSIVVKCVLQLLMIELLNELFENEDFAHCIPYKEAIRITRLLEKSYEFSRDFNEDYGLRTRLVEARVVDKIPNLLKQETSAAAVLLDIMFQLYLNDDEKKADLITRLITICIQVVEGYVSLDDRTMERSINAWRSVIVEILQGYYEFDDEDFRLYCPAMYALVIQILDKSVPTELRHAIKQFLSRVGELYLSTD

Row | SMILES | Reversibility of TGN46 dispersion [1] | Dispersion of TGN46 marker [1] | Rescue of compound-induced TGN46 dispersion by constitutively active Arf1, Arf5, Arf6 Q/L-mCherry [1] | Reversibility of GM130 dispersion [2] | Dispersion of GM130 marker [2] | Effect on function of yeast ArfGEF Sec7p (yeast ArfGEF Sec7p) | Stability in DMSO stock solution by 1H-NMR [3]
1 | Cc1ccc2oc(C(F)(F)F)cc(=O)c2c1[N+](=O)[O-] [Bragsin1, 6-methyl-5-nitro-2-(trifluoromethyl)-4H-chromen-4-one] | reversible | disperses | rescues | reversible | disperses | perturbs the function | completely decomposed
2 | COc1ccc2oc(C(F)(F)F)cc(=O)c2c1[N+](=O)[O-] [Bragsin2, 6-methoxy-5-nitro-2-(trifluoromethyl)-4H-chromen-4-one] | reversible | disperses | rescues | reversible | disperses |  | 
